From patent publication US8765747B2, “Fused 2-aminothiazole compounds” (Dana-Farber Cancer Institute, Inc., priority 2009, dated 2014)

Assays:
Ba/F3-PDGFRα-T674M = assay: Apoptosis assay; assay type: cell-based, murine; set-up: unit not given here; conditions: approximately 3 days of treatment
Description: (§1) All cell lines were cultured with 5% CO2 at 37° C. in RPMI (Mediatech, Inc., Herndon, Va.) with 10% fetal calf serum (FCS) and supplemented with 1% L-glutamine. Parental Ba/F3 cells were similarly cultured with 15% WEHI-conditioned medium as a source of IL-3. Transfected cell lines were cultured in media supplemented with 1 mg/ml G418.
(§2) Cell cycle analysis was performed using approximately 500,000 cells, which were centrifuged at 1500 rpm for 5 min, washed in PBS, and the pellet re-suspended in 500 μl of propidium iodide solution (50 μg/ml propidium iodide, 0.1% NP-40, 0.1% sodium citrate). The mixture was stored in the dark at 4° C. for a minimum of 15 min, and then analyzed by flow cytometry. Apoptosis of drug-treated cells was measured using the Annexin-V-Fluos Staining Kit (Boehringer Mannheim, Indianapolis).
(§3) Cells cultured in the presence or absence of drug were washed 1× with phosphate-buffered saline (PBS) and centrifuged for 5 min at 1500 rpm. Washed cell pellets were re-suspended in 100 μl of 20% Annexin-V-fluorescein labeling reagent and 20% propidium iodide (PI) in HEPES buffer. Cells were incubated for 15 min at room temperature, followed by dilution with 0.8 ml of HEPES buffer. Samples were then analyzed by flow cytometry. As controls, cells were incubated for 15 min with PI alone, Annexin-V-fluorescein labeling reagent alone, or HEPES buffer, and then diluted with HEPES buffer and analyzed by flow cytometry.

Ba/F3-kit-T6701 = assay: Apoptosis assay; assay type: cell-based, murine; set-up: unit not given here; conditions: approximately 3 days of treatment
Description: as §1, §2, §3

Ba/F3-PDGFRα-T674I = assay: Apoptosis assay; assay type: cell-based, murine; set-up: unit not given here; conditions: approximately 3 days of treatment
Description: as §1, §2, §3

FLT3 = FLT3 (Homo sapiens (Human), UniProt P36888); assay: KINOMEscan competition binding assay
Description: (§4) KINOMEscan™ (Ambit Biosciences, San Diego, Calif.), a high-throughput method for screening small molecular agents against a large panel of human kinases, was utilized for compound 2.
(§5) Kinases where significant binding affinity was detected at 10 μM were retested in dose-response format to determine a dissociation constant. The size of the red circle is proportion to Kd. […] The compound binds in the “DFG-out” conformation as evident by the position of F405. Ample space is available adjacent to the gatekeeper residue T338 providing a rationale for the tolerance for a larger amino acid at this position.

KIT = KIT (Homo sapiens (Human), UniProt P10721); assay: KINOMEscan competition binding assay
Description: as §4, §5

Ba/F3-PDGFRβ-T681I = assay: Relative IC50 in PDGFR-expressing cell line; assay type: cell-based, murine; conditions: Mus musculus, 2.5-3 days, read-out: Relative IC50 range
Description: (§6) All compounds were initially dissolved in DMSO to make 10 mM stock solutions, and then were serially diluted to obtain final concentrations for in vitro experiments.
as §1

32D-BCR-Abl = assay: Apoptosis assay; assay type: cell-based, murine; set-up: unit not given here; conditions: approximately 3 days of treatment
Source text: (§7) Ba/F3.p210 cells were obtained by transfecting the IL-3-dependent marine hematopoietic Ba/F3 cell line with a pGD vector containing p210BCR-ABL (B2A2) cDNA (Daley and Baltimore, 1988; Sattler et al., 1996; Okuda et al., 1996). Murine hematopoietic 32D cells were transduced with retrovirus to express p210 Bcr-ABL (32D.p210 cells) (Matulonis et al., 1993); the 32D-T315I cell line was transfected by electroporation with the imatinib resistant BCR-ABL construct (pCI-neo Mammalian Expression Vector; Promega (#E1841) harboring the point mutation T315I (Weisberg et al., 2005). Ba/F3 cells were stably transfected by electroporation with imatinib-resistant BCR-ABL constructs (pCI-neo Mammalian Expression Vector; Promega (#E1841) harboring the point mutations T315I, F317L, F486S, and M351T; transfectants were selected for neomycin resistance and IL-3-independent growth (Weisberg et al., 2005). Ba/F3 cells were stably transfected by electroporation with BCR-ABL point mutants identified in a random mutagenesis screen for BCR-ABL point mutants conferring resistance to nilotinib: Q252H, E292K, Y253C, Y253H, E255K, and V289L (Ray et al., 2007). Ba/F3 cells were made to express Tel-PDGFRβ as described by Golub et al., 1994, and Carroll et al., 1996. Constructs of D842V-PDGFRα and V561D-PDGFRα cDNA cloned into pcDNA3.1 were stably transfected into Ba/F3 cells by electroporation, and cells were selected for neomycin resistance and IL3-independent growth as described by Weisberg et al., 2006.
as §1, §2, §3

32D-BCR-Abl-T3151 = assay: Apoptosis assay; assay type: cell-based, murine; set-up: unit not given here; conditions: approximately 3 days of treatment
Source text: as §7, §1, §2, §3

Ba/F3-Y253C = assay: Relative IC50 in BCR-Abl-expressing cell line; assay type: cell-based, murine; conditions: Mus musculus, 2.5-3 days, read-out: Relative IC50 range
Description: as §6
as §7, with “Ba/F3 cells were made to express Tel-PDGFRβ as described by Golub et al., 1994, and Carroll et al., 1996. Constructs of D842V-PDGFRα and V561D-PDGFRα cDNA cloned into pcDNA3.1 were stably transfected into Ba/F3 cells by electroporation, and cells were selected for neomycin resistance and IL3-independent growth as described by Weisberg et al., 2006.” left out

Ba/F3-PDGFRα-V561D = assay: Relative IC50 in PDGFR-expressing cell line; assay type: cell-based, murine; conditions: Mus musculus, 48 h, 2 day experiment, read-out: Relative IC50 range
Description: as §6, §7, §1

Ba/F3-TEL/PDGFRβ = assay: Relative IC50 in PDGFR-expressing cell line; assay type: cell-based, murine; conditions: Mus musculus, 2.5-3 days, read-out: Relative IC50 range
Description: as §6, §7, §1

Ba/F3-PDGFRα-D842V = assay: Relative IC50 in PDGFR-expressing cell line; assay type: cell-based, murine; conditions: Mus musculus, 48 h, 2 day experiment, read-out: Relative IC50 range
Description: as §6, §7, §1

KIT, sequence (P10721 26-976): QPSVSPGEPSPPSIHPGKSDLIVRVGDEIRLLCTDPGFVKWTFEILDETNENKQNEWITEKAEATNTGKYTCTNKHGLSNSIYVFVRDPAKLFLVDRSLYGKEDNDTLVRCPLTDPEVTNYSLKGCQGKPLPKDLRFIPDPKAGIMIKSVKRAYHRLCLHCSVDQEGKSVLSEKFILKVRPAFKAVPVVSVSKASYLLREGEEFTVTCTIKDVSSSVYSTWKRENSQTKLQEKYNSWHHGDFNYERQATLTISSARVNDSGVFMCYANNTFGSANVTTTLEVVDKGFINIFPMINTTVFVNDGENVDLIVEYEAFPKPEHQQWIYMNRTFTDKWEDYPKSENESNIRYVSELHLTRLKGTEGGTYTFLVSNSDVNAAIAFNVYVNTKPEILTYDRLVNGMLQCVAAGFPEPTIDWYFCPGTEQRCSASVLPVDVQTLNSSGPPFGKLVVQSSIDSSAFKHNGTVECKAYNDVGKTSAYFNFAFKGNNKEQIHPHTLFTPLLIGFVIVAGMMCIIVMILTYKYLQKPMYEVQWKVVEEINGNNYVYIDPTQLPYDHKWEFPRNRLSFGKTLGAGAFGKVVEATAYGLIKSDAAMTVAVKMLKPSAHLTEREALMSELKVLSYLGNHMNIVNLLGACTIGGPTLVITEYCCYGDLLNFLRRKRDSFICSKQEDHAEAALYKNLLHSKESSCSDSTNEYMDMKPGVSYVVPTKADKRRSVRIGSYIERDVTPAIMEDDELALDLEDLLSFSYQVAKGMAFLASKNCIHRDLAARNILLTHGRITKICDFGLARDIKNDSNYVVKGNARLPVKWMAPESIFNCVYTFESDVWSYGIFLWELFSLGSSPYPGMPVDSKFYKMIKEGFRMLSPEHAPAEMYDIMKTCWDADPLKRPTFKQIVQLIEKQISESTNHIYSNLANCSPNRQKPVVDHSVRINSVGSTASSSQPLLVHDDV
FLT3, sequence (P36888 27-993): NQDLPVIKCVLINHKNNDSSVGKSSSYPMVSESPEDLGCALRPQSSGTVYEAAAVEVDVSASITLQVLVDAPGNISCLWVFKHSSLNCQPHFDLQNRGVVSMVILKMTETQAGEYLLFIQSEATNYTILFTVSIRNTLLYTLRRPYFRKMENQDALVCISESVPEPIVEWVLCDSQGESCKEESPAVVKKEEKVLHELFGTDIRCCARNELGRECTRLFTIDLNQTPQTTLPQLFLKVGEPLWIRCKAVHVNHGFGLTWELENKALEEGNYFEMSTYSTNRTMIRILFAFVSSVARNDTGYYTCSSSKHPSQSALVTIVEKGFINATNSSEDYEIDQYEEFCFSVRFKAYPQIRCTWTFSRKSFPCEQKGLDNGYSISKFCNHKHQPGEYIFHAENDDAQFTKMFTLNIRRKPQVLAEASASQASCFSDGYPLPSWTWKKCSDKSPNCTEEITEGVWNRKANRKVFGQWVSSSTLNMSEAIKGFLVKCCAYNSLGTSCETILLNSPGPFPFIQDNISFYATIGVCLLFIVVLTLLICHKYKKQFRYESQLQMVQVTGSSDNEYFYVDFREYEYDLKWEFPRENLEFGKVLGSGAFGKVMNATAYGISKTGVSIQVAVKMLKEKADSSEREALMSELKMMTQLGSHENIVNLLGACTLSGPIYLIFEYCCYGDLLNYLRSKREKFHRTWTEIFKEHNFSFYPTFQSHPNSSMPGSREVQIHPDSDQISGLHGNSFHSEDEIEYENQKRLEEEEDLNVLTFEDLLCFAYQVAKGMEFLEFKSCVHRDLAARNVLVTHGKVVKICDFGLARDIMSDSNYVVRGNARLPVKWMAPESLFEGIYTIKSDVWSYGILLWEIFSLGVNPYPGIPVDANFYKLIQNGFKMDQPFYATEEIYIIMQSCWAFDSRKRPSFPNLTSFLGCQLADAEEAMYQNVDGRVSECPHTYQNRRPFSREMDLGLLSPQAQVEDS

SMILES: CCN1CCN(Cc2ccc(NC(=O)c3cccc(-c4ccc5nc(NC(=O)C6CC6)sc5n4)c3)cc2C(F)(F)F)CC1 [Compound 2]
- Apoptotic (Ba/F3-PDGFRα-T674M; 0.01 μM): 9
- Necrotic (Ba/F3-PDGFRα-T674M; 0.01 μM): 0
- Viable (Ba/F3-PDGFRα-T674M; 0.01 μM): 91
- Apoptotic (Ba/F3-PDGFRα-T674M; 0.1 μM): 65.2
- Necrotic (Ba/F3-PDGFRα-T674M; 0.1 μM): 0
- Viable (Ba/F3-PDGFRα-T674M; 0.1 μM): 34.7
- Apoptotic (Ba/F3-PDGFRα-T674M; 1.0 μM): 86.80
- Necrotic (Ba/F3-PDGFRα-T674M; 1.0 μM): 0.1
- Viable (Ba/F3-PDGFRα-T674M; 1.0 μM): 13.2
- Apoptotic (Ba/F3-kit-T6701; 0.01 μM): 2.3
- Necrotic (Ba/F3-kit-T6701; 0.01 μM): 0
- Viable (Ba/F3-kit-T6701; 0.01 μM): 97.7
- Apoptotic (Ba/F3-kit-T6701; 0.1 μM): 3.1
- Necrotic (Ba/F3-kit-T6701; 0.1 μM): 0
- Viable (Ba/F3-kit-T6701; 0.1 μM): 96.9
- Apoptotic (Ba/F3-kit-T6701; 1.0 μM): 8.4
- Necrotic (Ba/F3-kit-T6701; 1.0 μM): 0
- Viable (Ba/F3-kit-T6701; 1.0 μM): 91.6
- Apoptotic (Ba/F3-PDGFRα-T674I; 0.01 μM): 38.1
- Necrotic (Ba/F3-PDGFRα-T674I; 0.01 μM): 0.1
- Viable (Ba/F3-PDGFRα-T674I; 0.01 μM): 61.9
- Apoptotic (Ba/F3-PDGFRα-T674I; 0.1 μM): 84.7
- Necrotic (Ba/F3-PDGFRα-T674I; 0.1 μM): 0.2
- Viable (Ba/F3-PDGFRα-T674I; 0.1 μM): 15.2
- Apoptotic (Ba/F3-PDGFRα-T674I; 1.0 μM): 94.1
- Necrotic (Ba/F3-PDGFRα-T674I; 1.0 μM): 0
- Viable (Ba/F3-PDGFRα-T674I; 1.0 μM): 5.8
- Kd (FLT3): 2.3 nM
- Kd (KIT): 2.9 nM
- IC50 (Ba/F3-PDGFRβ-T681I): > 1000 nM
- Apoptotic (32D-BCR-Abl; 0.01 μM): 5.8
- Necrotic (32D-BCR-Abl; 0.01 μM): 0.2
- Viable (32D-BCR-Abl; 0.01 μM): 94
- Apoptotic (32D-BCR-Abl; 0.1 μM): 52.3
- Necrotic (32D-BCR-Abl; 0.1 μM): 0.6
- Viable (32D-BCR-Abl; 0.1 μM): 47.1
- Apoptotic (32D-BCR-Abl; 1.0 μM): 95.3
- Necrotic (32D-BCR-Abl; 1.0 μM): 0.1
- Viable (32D-BCR-Abl; 1.0 μM): 4.6
- Apoptotic (32D-BCR-Abl-T3151; 0.01 μM): 9.0
- Necrotic (32D-BCR-Abl-T3151; 0.01 μM): 0.1
- Viable (32D-BCR-Abl-T3151; 0.01 μM): 90.88
- Apoptotic (32D-BCR-Abl-T3151; 0.1 μM): 9.8
- Necrotic (32D-BCR-Abl-T3151; 0.1 μM): 0.3
- Viable (32D-BCR-Abl-T3151; 0.1 μM): 89.9
- Apoptotic (32D-BCR-Abl-T3151; 1.0 μM): 72.7
- Necrotic (32D-BCR-Abl-T3151; 1.0 μM): 0
- Viable (32D-BCR-Abl-T3151; 1.0 μM): 27.2
- IC50 (Ba/F3-Y253C): < 100 nM
- IC50 (Ba/F3-PDGFRα-V561D): > 1000 nM
- IC50 (Ba/F3-TEL/PDGFRβ): < 100 nM
- IC50 (Ba/F3-PDGFRα-D842V): 1000 nM
